Literature values in patent US20080097086A1, “Process for preparing anti-tumor oligosaccharide material from chitosan” (TENWELL BIOTECHNOLOGY LIMITED, priority 2006, published 2008).
Where “and” joins values, the source holds several entries; their conditions need not be identical. Equal entries are not always repeated.

Columns and labels:
[1] = test system: fibrosarcoma (Meth-A) solid tumor cells
S180 = conditions: intravenous, S180-implanted ddY mice

chitohexaose
dose displaying the strongest effect ([1]; Meth-A solid tumor): 10 mg/kg | inhibition of Meth-A solid tumor ([1]; in vivo): significant inhibition | inhibitory rate on tumor growth (S180; 3 times at 100 mg/Kg/d, after seven days, 100 mg/kg/day): 85% and 93% | control of tumor growth (S180; increased to 5 times): complete control of tumor growth
